In general, IC50 refers to the point on the concentration scale where inhibition reaches its midpoint.

Each structure is given as a SMILES string.

The assay deals with H3K27Ac. The assay is described as follows: Intracellular H3K27Ac inhibitory activity in LK2 cells (Test Example 2). Format: cell-based. To be noted: Homo sapiens, LK-2, cultured with compound for 3 hours, read-out: Test Example 2 H3K27Ac Inhibition (LK2) IC50. The protocol:
[Test Example 2] Evaluation of Intracellular H3K27Ac Inhibitory Activity
LK2 cells derived from human squamous cell lung cancer were seeded in a 96 well plate at 40000 cells/100 μL/well, and were cultured overnight at 37° C. in 5% CO2. The LK2 cells were purchased from Human Science Research Resources Bank. […] The supernatant was discarded, 4% paraformaldehyde was added thereto at 100 μL/well, and the resultant was allowed to stand still at room temperature for 15 minutes. The 4% paraformaldehyde was discarded, and the resultant was washed with PBS-T. A quenching buffer (PBS-T containing 1% H2O2) was added thereto at of 100 μL/well, and the resultant was allowed to stand still at room temperature for 10 minutes. The resultant was washed with PBS-T, a blocking buffer (StartingBlocK T20 (TBS) Blocking Buffer (Thermo […], #37543)) was added thereto at 200 μL/well, and the resultant was allowed to stand still at room temperature for 1 hour. The supernatant was discarded, Acetyl-Histone H3 (Lys27) (D5E4) XP (registered trademark) Rabbit mAb (cell Signaling, #8173) diluted with a blocking buffer was added thereto at 50 μL/well, and the resultant was allowed to stand still at 4° C. overnight. The resultant was washed with PBS-T, Anti-Rabbit IgG-HRP (Cell Signaling, #7074S) diluted with a blocking buffer was added thereto at 50 μL/well, and the resultant was cultured at room temperature for 1 hour. The resultant was washed with PBS-T, SuperSignal (registered trademark) ELISA Pico Chemiluminescent Substrate (Thermo […], #37069) was added thereto at 50 μL/well, and a signal was measured using EnVision.
On to `COc1ccc(C2(C(=O)N3CCC[C@@H]3C(=O)Nc3cccc(C)c3)CCCC2)cc1` [Example 9, 1-{[1-(4-Methoxyphenyl)cyclopentyl]carbonyl}-N-(3-methylphenyl)-D-prolinamide], for which the IC50 is 8.45 µM.
For the compound `COc1ccc(C2(C(=O)N3C[C@H](F)C[C@@H]3C(=O)Nc3cccc4[nH]ncc34)CCCOC2)cc1` (stereo partly drawn) [Example 42, (4R)-4-Fluoro-N-1H-indazol-4-yl-1-{[3-(4-methoxyphenyl)tetrahydro-2H-pyran-3-yl]carbonyl}-D-prolinamide], the IC50 was 4.01 µM.
In the case of `COc1ccc(C2(C(=O)N3CCC[C@@H]3C(=O)Nc3ccccc3OC)CCCC2)cc1` [Example 10, N-(2-Methoxyphenyl)-1-{[1-(4-methoxyphenyl)cyclopentyl]carbonyl}-D-prolinamide] it was 6.11 µM; in that of `COc1ccc(C2(C(=O)N3CCC[C@@H]3C(=O)Nc3ccccc3)CCCC2)cc1` [Example 8, 1-{[1-(4-Methoxyphenyl)cyclopentyl]carbonyl}-N-phenyl-D-prolinamide], 6.53 µM.
In the case of `COc1ccc(C2(C(=O)N3CCCC3C(=O)Nc3cccc4c3cnn4C)CCCCC2)cc1` (stereo not drawn) [Example 3, 1-{[1-(4-Methoxyphenyl)cyclohexyl]carbonyl}-N-(1-methyl-1H-indazol-4-yl)prolinamide] it was 10.6 µM; in that of `O=C(O)c1ccc(C2(C(=O)N3CCC[C@@H]3C(=O)Nc3cccc4[nH]ncc34)CCCC2)cc1` [Example 4, 4-(1-{[(2R)-2-(1H-Indazol-4-ylcarbamoyl)pyrrolidin-1-yl]carbonyl}cyclopentyl)benzoic acid], 11.7 µM; in that of `COc1ccc(C2(C(=O)N3CCC[C@@H]3C(=O)Nc3cccc4[nH]cnc34)CCCC2)cc1` [Example 59], 2.5 µM.
In the case of `COc1ccc(C2(C(=O)N3CCC[C@@H]3C(=O)Nc3cccc4ccccc34)CCCC2)cc1` [Example 13, 1-{[1-(4-Methoxyphenyl)cyclopentyl]carbonyl}-N-naphthalen-1-yl-D-prolinamide] it was 3.99 µM; in that of `C#C[C@@]1(O)C[C@H](C(=O)Nc2ccccc2Cl)N(C(=O)C2(c3ccc(OC)cc3)CCCC2)C1` [Example 32, (4S)—N-(2-Chlorophenyl)-4-ethynyl-4-hydroxy-1-{[1-(4-methoxyphenyl)cyclopentyl]carbonyl}-D-prolinamide], 1.65 µM; in that of `COc1ccc(C2(C(=O)N3C[S+]([O-])C[C@@H]3C(=O)Nc3cccc4[nH]ncc34)CCCC2)cc1` (stereo partly drawn) [Example 28b, (4S)—N-(1H-Indazol-4-yl)-3-{[1-(4-methoxyphenyl)cyclopentyl]carbonyl}-1,3-thiazolidin-4-carboxamide 1-oxide], 6.88 µM.
Regarding `COc1ccc(C2(C(=O)N3[C@H](C)CC[C@@H]3C(=O)Nc3cccc4[nH]ncc34)CCCC2)cc1` [Example 25, (5R)—N-1H-Indazol-4-yl-1-{[1-(4-methoxyphenyl)cyclopentyl]carbonyl}-5-methyl-D-prolinamide], the IC50 worked out at 5.32 µM.
As to `COc1ccc(C2(C(=O)N3CCCCC[C@@H]3C(=O)Nc3ccccc3C#N)CCCC2)cc1` [Example 27, (2R)—N-(2-Cyanophenyl)-1-{[1-(4-methoxyphenyl)cyclopentyl]carbonyl}azepan-2-carboxamide], the IC50 was 2.53 µM.
In the case of `COc1ccc(C2(C(=O)N3CCC[C@@H]3C(=O)Nc3ncccn3)CCCC2)cc1` [Example 20, 1-{[1-(4-Methoxyphenyl)cyclopentyl]carbonyl}-N-pyrimidin-2-yl-D-prolinamide] it was 7.72 µM; in that of `COc1ccc(C2(C(=O)N3CCC[C@@H]3C(=O)Nc3cccc4[nH]ncc34)CCC(F)(F)CC2)cc1` [Example 55], 2.02 µM.
The figure for `COc1ccc(C2(C(=O)N3CCC[C@@H]3C(=O)Nc3cccc4cccnc34)CCCC2)cc1` [Example 14, 1-{[1-(4-Methoxyphenyl)cyclopentyl]carbonyl}-N-quinolin-8-yl-D-prolinamide] is 6.67 µM.

Values taken from patent US11274100B2, “EP300/CREBBP inhibitor” (Daiichi Sankyo Company, Limited, priority 2017, dated 2022).
